According to patent US12262716B2, “Herbicidal mixtures comprising L-glufosinate and their use in soybean cultures” (BASF SE, priority 2017, dated 2025):

Tests used:
Assay type in all cases: in vivo
[1] = test system: Cyperus iria; experiment: Greenhouse pot test, post emergence treatment, herbicidal activity against CYPIR; conditions: scale 0 to 100
[2] = test system: Echinochloa crus-galli; experiment: Greenhouse pot test, post emergence treatment, herbicidal activity against ECHCG; conditions: scale 0 to 100
Source text: (§1) Synergism can be described as an interaction where the combined effect of two or more compounds is greater than the sum of the individual effects of each of the compounds. The presence of a synergistic effect in terms of percent control, between two mixing partners (X and Y) can be calculated using the Colby equation (Colby, S. R., 1967, Calculating Synergistic and Antagonistic Responses in Herbicide Combinations, Weeds, 15, 21-22):
(§2) When the observed combined control effect is greater than the expected (calculated) combined control effect (E), then the combined effect is synergistic.
(§3) However, the weed control afforded by the compounds, mixtures or compositions is not limited to these species. The analysis of synergism or antagonism between the mixtures or compositions was determined using Colby's equation.
The culture containers used were plastic flowerpots containing loamy sand with approximately 3.0% of humus as the substrate. The seeds of the test plants were sown separately for each species and/or resistant biotype. For the pre-emergence treatment, the active ingredients, which had been suspended or emulsified in water, were applied directly after sowing by means of finely distributing nozzles. The containers were irrigated gently to promote germination and growth and subsequently covered with transparent plastic hoods until the plants had rooted. This cover caused uniform germination of the test plants, unless this had been impaired by the active ingredients. For the post-emergence treatment, the test plants were first grown to a height of 3 to 15 cm, depending on the plant habit, and only then treated with the active ingredients which had been suspended or emulsified in water. For this purpose, the test plants were either sown directly and grown in the same containers, or they were first grown separately as seedlings and transplanted into the test containers a few days prior to treatment. […] During this time, the plants were tended, and their response to the individual treatments was evaluated. […]

[3] = test system: Abutilon theophrasti; experiment: Greenhouse pot test, post emergence treatment, herbicidal activity against ABUTH; conditions: scale 0 to 100
Source text: as §1, §2, §3
(§4) The culture containers used were plastic flowerpots containing loamy sand with approximately 3.0% of humus as the substrate. The seeds of the test plants were sown separately for each species and/or resistant biotype. For the pre-emergence treatment, the active ingredients, which had been suspended or emulsified in water, were applied directly after sowing by means of finely distributing nozzles. The containers were irrigated gently to promote germination and growth and subsequently covered with transparent plastic hoods until the plants had rooted. This cover caused uniform germination of the test plants, unless this had been impaired by the active ingredients. For the post-emergence treatment, the test plants were first grown to a height of 3 to 15 cm, depending on the plant habit, and only then treated with the active ingredients which had been suspended or emulsified in water. For this purpose, the test plants were either sown directly and grown in the same containers, or they were first grown separately as seedlings and transplanted into the test containers a few days prior to treatment. Depending on the species, the plants were kept at 10-25 ° C.or 20-35° C., respectively. The test period extended to 20 days after treatment. During this time, the plants were tended, and their response to the individual treatments was evaluated. The evaluation was carried out by using a scale from 0 to 100. 100 means no emergence of the plants or complete destruction of at least the above-ground parts, and 0 means no damage, or normal course of growth. Data shown are the mean of two replications.
• L-Glufosinate: 5% EC formulation • Saflufenacil: 342 g/l SC formulation • Compound II-89: 5% EC formulation (Compound II-89: ethyl [3-[2-chloro-4-fluoro-5-(1-methyl-6-trifluoromethyl-2,4-dioxo-1,2,3,4-tetrahydropyrimidin-3-yl)phenoxy]-2-pyridyloxy]acetate) • Trifludimoxazin: 500 g/l SC formulation • Pyroxasulfone: 85% WG formulation • Pethoxamid: 5% EC formulation • Sulfentrazone: 480 g/l SC formulation Weeds in the Study: […]

[4] = test system: Avena fatua; experiment: Greenhouse pot test, post emergence treatment, herbicidal activity against AVEFA; conditions: scale 0 to 100
Source text: as §1, §2, §3
as §4, with “replications. […]” for “replications.”

[5] = test system: Erigeron Canadensis, Conyza canadensis; experiment: Greenhouse pot test, post emergence treatment, herbicidal activity against ERICA; conditions: L-Glufosinate 75 g ai/ha, scale 0 to 100

`CCOC(=O)COc1ncccc1Oc1cc(-n2c(=O)cc(C(F)(F)F)n(C)c2=O)c(F)cc1Cl` [Compound II-89, ethyl [3-[2-chloro-4-fluoro-5-(1-methyl-6-trifluoromethyl-2,4-dioxo-1,2,3,4-tetrahydropyrimidin-3-yl)phenoxy]-2-pyridyloxy]acetate] was tested, and the “Herbicidal activity against CYPIR, Found” value ([1]; Compound II-89 0.25 g ai/ha) was 0.

With `CP(=O)(O)CC[C@H](N)C(=O)O` [L-Glufosinate, (2S)-2-amino-4-[hydroxy(methyl)phosphinoyl]butyric acid] the “Herbicidal activity against ECHCG, Found” value ([2]; L-Glufosinate 200 g ai/ha) was 0, the “Herbicidal activity against ECHCG, Found” value ([2]; L-Glufosinate 400 g ai/ha) was 65 and the “Herbicidal activity against CYPIR, Found” value ([1]; L-Glufosinate 200 g ai/ha) was 0. The “Herbicidal activity against ABUTH, Found” value ([3]; L-Glufosinate 75 g ai/ha) was 0, the “Herbicidal activity against ABUTH, Found” value ([3]; L-Glufosinate 150 g ai/ha) was 55 and the “Herbicidal activity against ABUTH, Found” value ([3]; L-Glufosinate 200 g ai/ha) was 65. For the same compound, the “Herbicidal activity against AVEFA, Found” value ([4]; L-Glufosinate 75 g ai/ha) was 0, the “Herbicidal activity against AVEFA, Found” value ([4]; L-Glufosinate 150 g ai/ha) was 0 and the “Herbicidal activity against ERICA, Found” value [5] was 90.

`CCOCCN(C(=O)CCl)C(=C(C)C)c1ccccc1` [Pethoxamid, pethoxamid] was tested, and the “Herbicidal activity against ABUTH, Found” value ([3]; Pethoxamid 50 g ai/ha) was 0, the “Herbicidal activity against ABUTH, Found” value ([3]; Pethoxamid 100 g ai/ha) was 0 and the “Herbicidal activity against AVEFA, Found” value ([4]; Pethoxamid 50 g ai/ha) was 0. For the same compound, the “Herbicidal activity against AVEFA, Found” value ([4]; Pethoxamid 100 g ai/ha) was 0.

With `C#CCN1C(=O)C(F)(F)Oc2cc(F)c(-n3c(=O)n(C)c(=S)n(C)c3=O)cc21` [Trifludimoxazin, trifludimoxazin] the “Herbicidal activity against ECHCG, Found” value ([2]; Trifludimoxazin 0.25 g ai/ha) was 10.
